This is an account of results in patent US6486162B2, “2-{3-[4-(2-t-butyl-6-trifluoromethyl-4-pyrimidinyl)-1- piperazinyl] propylthio}-4-pyrimidinol fumarate” (Abbott Laboratories, priority 1997, dated 2002).

Type in all cases: physicochemical
The nature of data set [1]: solubility tests of the substances. An excerpt:
It has a selectivity, Ki D2/Ki D3of 120 (cf. WO 96/02519). The compound is therefore useful for treating disorders which respond to dopamine D3ligands, eg. for treating disorders of the central nervous system, in particular schizophrenia, depressions, neuroses and psychoses. It is additionally useful for treating sleep disturbances and nausea and as antihistamine.
(§1) Furthermore, the fumarate is more soluble in polar solvents such as C1-C6-alkanols than the free base. Because of the altered solubility characteristics, it can also be purified more simply while avoiding physiologically unacceptable solvents.

The nature of data set [2]: stability against oxidative processes. Conditions: compared to the free base.
Source text: as §1

The nature of data set [3]: evaluation of various acid addition salts. An excerpt:
Evaluation of various acid addition salts of 2-{3-[4-(2-t-butyl-6-trifluoromethyl-4-pyrimidyl)-1-piperazinyl)propylthio}-4-5 pyrimidinol

As for `CC(C)(C)c1nc(N2CCN(CCCSc3nccc(O)n3)CC2)cc(C(F)(F)F)n1.O=C(O)/C=C/C(=O)O` [Fumarate, fumaric acid salt of 2-{3-[4-(2-t-butyl-6-trifluoromethyl-4-pyrimidinyl)-1-piperazinyl]propylthio}-4-pyrimidinol], the solubility in water result in data set [1] (compared to that of the free base) is given as “substantially higher solubility”. For the same compound, in data set [1] (compared to the free base), the “solubility in polar solvents such as C1-C6-alkanols” value is reported as “more soluble”. Also, the “stability against oxidative processes” value in data set [2] is on record as “higher stability”. In addition, the “Observation: hygroscopicity” value in data set [3] was “non-hygroscopic salt with definite”.

Regarding Hydrochloride, the “Observation: stability of the compound in the acidic medium” value in data set [3] (aqueous solution of the salt is highly acidic) was “acidic; the compound is instable in”.

Consider Methane sulfonate, for which the “Observation: crystals are deliquescent and dissolve within” value in data set [3] was “deliquescent and dissolve within 3 h”.
